Laboratory results published in BindingDB's records for doi:10.1021/jm980023c (F. Hoffmann-La Roche, 1998).

Key:
[1] = target: Beta-lactamase TEM-3 (Escherichia coli); test: Inhibitory activity against Escherichia coli TEM-3 Beta-lactamase
Beta-lactamase = Beta-lactamase (Pseudomonas aeruginosa (strain ATCC 15692 / DSM 22644 / CIP 104116 / JCM 14847 / LMG 12228 / 1C / PRS 101 / PAO1), UniProt P24735); test: Deacylation of 18SH Beta-lactamase of Pseudomonas aeruginosa
Chain of Beta-lactamase (P24735 whole entry): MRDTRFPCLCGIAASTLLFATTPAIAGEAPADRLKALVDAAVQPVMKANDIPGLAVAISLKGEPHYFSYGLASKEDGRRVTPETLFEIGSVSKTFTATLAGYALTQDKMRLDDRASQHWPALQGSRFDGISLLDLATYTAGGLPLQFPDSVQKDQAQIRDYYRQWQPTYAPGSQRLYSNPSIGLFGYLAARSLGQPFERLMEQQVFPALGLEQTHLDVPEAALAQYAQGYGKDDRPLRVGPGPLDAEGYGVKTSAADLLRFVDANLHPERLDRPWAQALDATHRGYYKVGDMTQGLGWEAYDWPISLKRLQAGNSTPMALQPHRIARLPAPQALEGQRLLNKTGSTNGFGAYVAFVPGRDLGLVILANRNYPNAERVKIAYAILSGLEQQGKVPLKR

Structure (SMILES) | IC50 [1] [µM] | koff (Beta-lactamase) [s⁻¹]
NC(=O)c1ccc[n+](CC(=O)N2CC[C@@H]3[C@H]2C(=O)N3S(=O)(=O)[O-])c1 | 0.7 | –
Cn1nnnc1S[C@@H]1CN(C(=O)OCc2ccccc2)[C@@H]2C(=O)N(S(=O)(=O)O)[C@@H]21 [Sodium; (1S,4R,5S)-2-benzyloxycarbonyl-4-(1-methyl-1H-tetrazol-5-ylsulfanyl)-7-oxo-2,6-diaza-bicyclo[3.2.0]heptane-6-sulfonate] | 0.035 | –
O=C(OCc1ccccc1)N1C[C@H](F)[C@@H]2[C@H]1C(=O)N2S(=O)(=O)O [Sodium; (1S,4S,5S)-2-benzyloxycarbonyl-4-fluoro-7-oxo-2,6-diaza-bicyclo[3.2.0]heptane-6-sulfonate] | 0.511 | –
NC(=O)c1cccc(NC(=O)N2CC[C@@H]3[C@H]2C(=O)N3S(=O)(=O)O)c1 [Sodium; (1S,5R)-2-(3-carbamoyl-phenylcarbamoyl)-7-oxo-2,6-diaza-bicyclo[3.2.0]heptane-6-sulfonate] | 4 | –
NC(=O)c1ccc(NC(=O)N2CC[C@@H]3[C@H]2C(=O)N3S(=O)(=O)O)cc1 [Sodium; (1S,5R)-2-(4-carbamoyl-phenylcarbamoyl)-7-oxo-2,6-diaza-bicyclo[3.2.0]heptane-6-sulfonate] | > 100 | –
O=C(Nc1ccc(O)cc1)N1CC[C@@H]2[C@H]1C(=O)N2S(=O)(=O)O [Sodium; (1S,5R)-2-(4-hydroxy-phenylcarbamoyl)-7-oxo-2,6-diaza-bicyclo[3.2.0]heptane-6-sulfonate] | > 100 | –
Cn1ccnc1SCC(=O)N1CC[C@@H]2[C@H]1C(=O)N2S(=O)(=O)O [Sodium; (1S,5R)-2-[2-(1-methyl-1H-imidazol-2-ylsulfanyl)-acetyl]-7-oxo-2,6-diaza-bicyclo[3.2.0]heptane-6-sulfonate] | > 100 | –
Cn1nnnc1SCC(=O)N1CC[C@@H]2[C@H]1C(=O)N2S(=O)(=O)O [Sodium; (1S,5R)-2-[2-(1-methyl-1H-tetrazol-5-ylsulfanyl)-acetyl]-7-oxo-2,6-diaza-bicyclo[3.2.0]heptane-6-sulfonate] | > 100 | –
Cc1nn(C)c(SCC(=O)N2CC[C@@H]3[C@H]2C(=O)N3S(=O)(=O)O)nc1=O [Sodium; (1S,5R)-2-[2-(2,6-dimethyl-5-oxo-2,5-dihydro-[1,2,4]triazin-3-ylsulfanyl)-acetyl]-7-oxo-2,6-diaza-bicyclo[3.2.0]heptane-6-sulfonate] | > 100 | –
O=C(CNc1ccc(O)cc1)N1CC[C@@H]2[C@H]1C(=O)N2S(=O)(=O)O [Sodium; (1S,5R)-2-[2-(4-hydroxy-phenylamino)-acetyl]-7-oxo-2,6-diaza-bicyclo[3.2.0]heptane-6-sulfonate] | 79.2 | –
Cn1cnnc1SCC(=O)N1CC[C@@H]2[C@H]1C(=O)N2S(=O)(=O)O [Sodium; (1S,5R)-2-[2-(4-methyl-4H-[1,2,4]triazol-3-ylsulfanyl)-acetyl]-7-oxo-2,6-diaza-bicyclo[3.2.0]heptane-6-sulfonate] | > 100 | –
NC(C(=O)N1CC[C@@H]2[C@H]1C(=O)N2S(=O)(=O)O)c1ccc(O)cc1 (stereo partly drawn) [Sodium; (1S,5R)-2-[2-amino-2-(4-hydroxy-phenyl)-acetyl]-7-oxo-2,6-diaza-bicyclo[3.2.0]heptane-6-sulfonate] | > 100 | –
NC(=O)/C=C1\CN(C(=O)OCc2ccccc2)[C@@H]2C(=O)N(S(=O)(=O)O)[C@H]12 [Sodium; (1S,5R)-2-benzyloxycarbonyl-4-[1-carbamoyl-meth-(E)-ylidene]-7-oxo-2,6-diaza-bicyclo[3.2.0]heptane-6-sulfonate] | 0.031 | –
O=C(OCc1ccccc1)N1CC[C@@H]2[C@H]1C(=O)N2S(=O)(=O)O [Sodium; (1S,5R)-2-benzyloxycarbonyl-7-oxo-2,6-diaza-bicyclo[3.2.0]heptane-6-sulfonate] | > 100 | –
CC(C)(C)OC(=O)N1CC[C@@H]2[C@H]1C(=O)N2S(=O)(=O)O [Sodium; (1S,5R)-2-tert-butoxycarbonyl-7-oxo-2,6-diaza-bicyclo[3.2.0]heptane-6-sulfonate] | > 100 | 0.000037
NC(=O)Nc1ccc(NC(=O)N2CC[C@@H]3[C@H]2C(=O)N3S(=O)(=O)O)cc1 [Sodium; (1S,5R)-7-oxo-2-(4-ureido-phenylcarbamoyl)-2,6-diaza-bicyclo[3.2.0]heptane-6-sulfonate] | 100 | –
O=C1NCC[C@@H]1NC(=O)N1CC[C@@H]2[C@H]1C(=O)N2S(=O)(=O)O [Sodium; (1S,5R)-7-oxo-2-((S)-2-oxo-pyrrolidin-3-ylcarbamoyl)-2,6-diaza-bicyclo[3.2.0]heptane-6-sulfonate] | > 100 | –
O=C(NC1CCNCC1)N1CC[C@@H]2[C@H]1C(=O)N2S(=O)(=O)O [Sodium; (1S,5R)-7-oxo-2-(piperidin-4-ylcarbamoyl)-2,6-diaza-bicyclo[3.2.0]heptane-6-sulfonate] | > 100 | 0.0012
CC(C)(C)OC(=O)N1CCC[C@@H]2[C@H]1C(=O)N2S(=O)(=O)O [Sodium; (1S,6R)-2-tert-butoxycarbonyl-8-oxo-2,7-diaza-bicyclo[4.2.0]octane-7-sulfonate] | > 100 | 0.0007
